Reference: PMC6555543 (PLoS Pathogens, 2019)

Tests used:
[1] = biological target: T1, RVFV CBD (CBD13, RVFV L protein cap-binding domain) (Rift Valley fever virus, UniProt A2SZS3); details: 1-10 mM ligand, 15 μM protein, 20 mM Na-phosphate pH 6.5, 100 mM NaCl
[2] = biological target: T1, RVFV CBD (CBD13, RVFV L protein cap-binding domain); details: 25°C, 50 mM Na-phosphate pH 6.5, 150 mM NaCl, 10% glycerol; 9.8 mM GTP in syringe, 194 μM protein
[3] = biological target: T1, RVFV CBD (CBD13, RVFV L protein cap-binding domain); test: biochemical

T1 sequence (A2SZS3 1706-1822 limits assumed): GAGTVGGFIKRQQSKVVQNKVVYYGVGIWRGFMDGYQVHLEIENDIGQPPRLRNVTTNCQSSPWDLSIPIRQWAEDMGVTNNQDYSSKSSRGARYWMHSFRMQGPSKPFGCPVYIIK

In the case of `Nc1ncnc2c1ncn2[C@@H]1O[C@H](COP(=O)(O)OP(=O)(O)OP(=O)(O)O)[C@@H](O)[C@H]1O` [ATP], the ΔTm [1] is reported as “no or even negative effects on protein stability after addition of GTP or ATP”.
For `Nc1nc2c(ncn2[C@@H]2O[C@H](COP(=O)(O)OP(=O)(O)OP(=O)(O)O)[C@@H](O)[C@H]2O)c(=O)[nH]1` [GTP], the KD [2] was “For GTP the KD is too high to be determined by ITC”.
Work on `C[n+]1cn([C@@H]2O[C@H](COP(=O)(O)OP(=O)(O)OP(=O)(O)O)[C@@H](O)[C@H]2O)c2nc(N)[nH]c(=O)c21` [m^7GTP] yielded a Kd [3] of roughly 737 µM.
